Measured values taken from patent US20220332737A1, “CARBOCYCLIC NUCLEOSIDE ANALOGUE” (Ludwig-Maximilians-Universität München, priority 2019, published 2022).
“Also recorded” adds a separate entry of the source. Like-named read-outs stand apart in the source and are kept apart here.

Legend:
[1] = HPLC stability test of a neutral solution in pure water (FIG. 5); type: physicochemical; conditions: 100 mM solutions in pure water, t=0 h to 6 d
Description: FIG. 5. HPLC investigation of a neutral solution of Decitabine 1 (left) versus the carbacyclic compound cAzaC 20 (right). 100 mM solutions of the compounds were kept in pure water and tested at t=0 h, 1.5 h, 3 h, 4.5 h, 6 h, 24 h, 6 d.

[2] = tested on: mouse embryonic stem cells (mESC); conditions: from reference [19], cited from earlier work
[3] = Test for hydrolytic stability in KH2PO4 buffer (HPLC); type: physicochemical; conditions: for hydrolytic stability / degradation: aqueous KH2PO4 buffer 100 mM, pH 7.4, 5.5 and 8.5 (all tested pH values), 100 mM compound, r.t.
Description: Both nucleosides were dissolved in aqueous KH2PO4 buffer (100 mM, pH=7.4, 5.5 and 8.5) in 100 mM concentration. The solutions were immediately analysed via HPLC (t=0 h) with subsequent HPLC analyses every 1.5 h or at indicated time points. As stationary phase an EC 250/4 NUCLEOSIL 120-3 C18 (Macherey-Nagel) chromatography column was used. The mobile phase consisted of water (buffer A) and acetonitrile (buffer B) at a flow-rate of 0.5 mL/min as follows: 0→25 min, 0→5% buffer B; 25 min→28 min, 5%→80%; 28 min→38 min, 80%; 38 min→43 min 80%→0%; 43 min→45 min, 0%.
Since one treatment cycle for AzadC goes over four weeks we decided to measure the stability at a time point related to a half cycle (14 d). NMR spectra were measured after keeping the solutions at r.t.

[4] = tested on: mouse embryonic stem cells (mESC); assay: Treatment of primed mESC, UHPLC-MS2 quantification of genome incorporation and mdC/hmdC levels; type: cell-based; conditions: for level incorporated into the genome: primed mESC
Description: Feeder independent wt J1 (strain 129S4/SvJae) cells were cultured in the presence of serum and LIF as previously described. They were routinely maintained on gelatinized plates in 2i/L medium. For priming experiments, 2i cultures were passaged when applicable in DMEM supplemented with FBS and LIF as above but lacking the inhibitors. For drug treatment, cells were moved into the primed state by removing 2i from the medium. Cells were incubated 2 d in DMEM supplemented with FBS and LIF in 6-well plates (VWR). After splitting, 2×10^5 cells were transferred into a 6-well plate culture dish and supplemented with either 1 μM (in 0.01% DMSO) or 5 μM cAzadC (in 0.05% DMSO) and treated for 72 h. After removal of the medium and washing the cells with DPBS, they were directly lysed with RLT^+ buffer as described in a previous publication.
The gDNA was isolated as described previously. The gDNA was directly subjected to a total enzymatic digest and analyzed using UHPLC-MS^2 as described in a previous publication. The external calibration curve was generated by serially diluting pure cAzadC [20 pmol, 10 pmol, 5 pmol, 2.5 pmol, 1.25 pmol, 0.625 pmol, 0.3125 pmol] and measuring it in technical triplicates prior to each measurement. Linear regression was done by OriginPro 2016G.
We investigated if the disarming effect described in Example 3 would influence the biological functions. We used for this purpose mouse embryonic stem cells (mESC) that were primed in serum/Lif as a model system, since mdC levels increase from naïve to primed state. We added cAzadC 1 in two different concentrations (1 μM and 5 μM) to mESC that have been primed for 48 h and allowed the cells to further proliferate under priming conditions in the presence of cAzadC 1 for additional 72 h. After the 72 h, we harvested the cells, isolated the DNA and digested the DNA down to the nucleoside level using our described protocol.
The levels of mdC were finally precisely quantified using isotope dilution UHPLC-MS^2. To this end, isotopically labelled standards of the nucleosides were spiked-in for exact quantification. In addition to mdC, we quantified the levels of 5-hydroxymethyl-2′-deoxycytidine (hmdC), which is formed from mdC by the action of TET enzymes. The absolute levels of hmdC are in mESC more than ten times lower than the mdC levels. The consequence is that even after a substantial reduction of mdC, there should be sufficient mdC to keep the hmdC levels constant. The question if and by how much the hmdC level is affected can therefore inform us about how epigenetic reprogramming is organized.
Parallel to the quantification of mdC and hmdC we also quantified to which extend cAzadC 1 itself was incorporated into the genome of the mESC. Detection of AzadC in the genome of treated cells is only possible after treatment of the DNA with NaBH4. Application of NaBH4 reduces the C(5)=C(6) double bond, which stabilizes the compound so that its quantification becomes possible. To our delight, we noted that the stability of cAzadC 1 allowed its quantification without this pre-treatment. We also noted that the applied enzymatic digestion protocol allowed to digest genomic DNA (gDNA) even in the presence of large amounts of cAzadC 1. Taken together, quantification of cAzadC 1 by UHPLC-MS^2 using an external calibration curve was possible in parallel to quantification of canonical and epigenetic bases.

Row | stability compared with decitabine [1] | intact compound remaining ([3]; pH=5.5, 14 d) | intact compound remaining ([3]; pH=8.5, 14 d) | Structure (SMILES) | decrease of mdC to % of the original value ([2]; 24 h, 1 μM) | level incorporated into the genome ([2]; applied with 1 μM) | hydrolytic stability / degradation ([3]; 14 d) | intact compound remaining / degradation ([3]; physiological pH (7.4), 14 d) | hmdC levels reduced to ([4]; 1 μM, 72 h) | nucleotides integrated into the genome ([4]; 1 μM, 72 h) | level incorporated into the genome ([4]; 1 μM, 72 h) | incorporated level relative to the AzadC level ([4]; 1 μM, compared with AzadC at 1 μM [19]) | increase of incorporated level, 5 μM versus 1 μM ([4]; 5 μM versus 1 μM) | nucleotides integrated per genome ([4]; 5 μM, 72 h) | hmdC detection ([4]; 5 μM, 72 h, 0.5 μg of genomic DNA) | level incorporated into the genome ([4]; 5 μM, 72 h) | mdC levels, of the original value ([4]; 72 h at 5 µM concentration in the medium) | reduction of the mdC values ([4]; 72 h at 1 M cAzadC in the medium) | mdC level relative to the control levels ([4]; summary, concentration not given)
1 | much more stable | – | – | Nc1ncn([C@@H]2C[C@H](CO)[C@@H](O)[C@H]2O)c(=O)n1 [cAzaC 20, 4-Amino-1-[(1′R,2′S,3′R,4′R)-2′,3′-bishydroxy-4′-(hydroxymethyl) -cyclopentyl]-1H-[1,3,5]-triazin-2-one] | – | – | – | – | – | – | – | – | – | – | – | – | – | – | –
2 | – | only hardly detectable | only hardly detectable | Nc1ncn([C@H]2C[C@H](O)[C@@H](CO)O2)c(=O)n1 [AzadC, 5-Aza-2′-deoxycytidine] | 50% | 1.2×10^−3 AzadC per dN | strongly degraded; also recorded: severe hydrolytic decomposition | still present after 14 d but the level of degradation is dramatic | – | – | – | – | – | – | – | – | – | – | –
3 | – | – | – | Nc1ncn([C@@H]2C[C@H](CO)[C@@H](O)C2)c(=O)n1 [cAzadC 1, 4-Amino-1-[(1′R,3′S,4′R)-3′-hydroxy-4′-(hydroxymethyl)-cyclopentyl]-1H -[1,3,5]triazin-2-one] | – | – | no degradation; also recorded: stable at all three pH values | – | about 50% | ~3 million | 5×10^−4 cAzadC per dN | about a third | 3 fold | more than 8 million | unable to detect hmdC above background levels | 1.7×10^−3 cAzadC per dN | about 50% | ~30% | 70%
